Data reported in ChEMBL document CHEMBL3997784, “Discovery of new nanomolar inhibitors of GPa: Extension of 2-oxo-1,2-dihydropyridinyl-3-yl amide-based GPa inhibitors” (Eur J Med Chem, 2017).
Active and inactive are the calls of the source. The calls are words filed in the database; no cut-off is given here.

What was measured:
[1] = target: T1, Glycogen phosphorylase, muscle form (Rattus norvegicus) (UniProt P09812); conditions: 22.2 uM
T1 sequence (whole entry): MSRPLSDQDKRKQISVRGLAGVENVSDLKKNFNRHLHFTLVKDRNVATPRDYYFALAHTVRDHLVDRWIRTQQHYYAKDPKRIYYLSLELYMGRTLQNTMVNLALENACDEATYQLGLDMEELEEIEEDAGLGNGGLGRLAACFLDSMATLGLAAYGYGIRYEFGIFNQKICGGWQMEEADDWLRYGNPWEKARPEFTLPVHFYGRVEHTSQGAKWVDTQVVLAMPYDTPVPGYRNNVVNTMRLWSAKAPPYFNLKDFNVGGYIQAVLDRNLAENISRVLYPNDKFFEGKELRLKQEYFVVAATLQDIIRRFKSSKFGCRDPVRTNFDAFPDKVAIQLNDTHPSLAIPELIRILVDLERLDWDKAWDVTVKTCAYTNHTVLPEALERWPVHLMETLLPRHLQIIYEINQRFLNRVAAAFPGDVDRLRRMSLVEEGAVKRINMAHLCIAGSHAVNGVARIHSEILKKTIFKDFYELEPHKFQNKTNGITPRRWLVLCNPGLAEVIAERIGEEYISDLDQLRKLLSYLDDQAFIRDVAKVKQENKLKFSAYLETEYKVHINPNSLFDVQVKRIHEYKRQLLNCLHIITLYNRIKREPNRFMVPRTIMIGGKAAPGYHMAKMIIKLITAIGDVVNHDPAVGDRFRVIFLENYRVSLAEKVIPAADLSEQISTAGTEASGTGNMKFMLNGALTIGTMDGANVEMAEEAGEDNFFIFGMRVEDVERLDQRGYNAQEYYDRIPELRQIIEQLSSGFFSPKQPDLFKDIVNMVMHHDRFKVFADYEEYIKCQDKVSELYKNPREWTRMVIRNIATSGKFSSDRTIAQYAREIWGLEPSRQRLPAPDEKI
Description: Inhibition of rat muscle glycogen phosphorylase A assessed as release of inorganic phosphate from glucose-1- phosphate in presence of glycogen at 22.2 uM after 30 mins by malachite green based assay relative to control

[2] = target: Glycogen phosphorylase, muscle form (Oryctolagus cuniculus) (UniProt P00489); assay: Inhibition of rabbit muscle glycogen phosphorylase A assessed as release of inorganic phosphate from glucose-1- phosphate in presence of glycogen after 30 mins by malachite green based assay
[3] = target: Glycogen phosphorylase, muscle form (Oryctolagus cuniculus) (UniProt P00489); assay: Inhibition of rabbit muscle glycogen phosphorylase A assessed as release of inorganic phosphate from glucose-1- phosphate in presence of glycogen at 222 uM after 30 mins by malachite green based assay relative to control
[4] = target: Glycogen phosphorylase, muscle form (Oryctolagus cuniculus) (UniProt P00489); assay: Inhibition of rabbit muscle glycogen phosphorylase A assessed as release of inorganic phosphate from glucose-1- phosphate in presence of glycogen at 2.2 uM after 30 mins by malachite green based assay relative to control

Glycogen phosphorylase, muscle form (Oryctolagus cuniculus), sequence (P00489 whole entry, looked up): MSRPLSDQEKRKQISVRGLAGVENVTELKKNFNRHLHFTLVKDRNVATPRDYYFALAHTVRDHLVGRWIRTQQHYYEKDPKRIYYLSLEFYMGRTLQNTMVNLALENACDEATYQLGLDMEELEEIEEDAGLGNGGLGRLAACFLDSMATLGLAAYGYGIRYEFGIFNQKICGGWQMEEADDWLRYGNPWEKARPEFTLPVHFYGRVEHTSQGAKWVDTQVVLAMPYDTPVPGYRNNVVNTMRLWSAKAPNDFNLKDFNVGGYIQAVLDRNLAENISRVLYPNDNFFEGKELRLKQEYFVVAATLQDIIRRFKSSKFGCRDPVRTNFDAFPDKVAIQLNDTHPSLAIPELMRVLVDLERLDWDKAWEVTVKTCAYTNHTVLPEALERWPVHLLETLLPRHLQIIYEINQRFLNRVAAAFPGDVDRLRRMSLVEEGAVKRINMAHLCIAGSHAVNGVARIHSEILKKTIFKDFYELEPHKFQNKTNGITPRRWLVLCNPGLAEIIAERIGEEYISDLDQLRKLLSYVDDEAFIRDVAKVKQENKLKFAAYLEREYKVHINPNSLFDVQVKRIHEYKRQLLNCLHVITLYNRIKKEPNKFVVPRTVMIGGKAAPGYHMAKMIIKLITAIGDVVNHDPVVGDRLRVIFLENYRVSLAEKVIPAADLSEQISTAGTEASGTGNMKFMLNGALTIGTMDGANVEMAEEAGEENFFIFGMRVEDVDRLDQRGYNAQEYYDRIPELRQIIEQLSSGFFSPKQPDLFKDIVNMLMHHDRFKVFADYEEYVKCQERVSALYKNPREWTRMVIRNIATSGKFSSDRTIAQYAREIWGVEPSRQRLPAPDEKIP

Structure (SMILES)	IC50 [2] [nM]	inhibition [3]	also measured
CCCNC(=O)Cn1cccc(NC(=O)Nc2ccc(NC(=O)Nc3cccn(CC(=O)NCCC)c3=O)cc2)c1=O	1600		inhibition [1]: > 85%
O=C(NCc1ccccc1)C1CCCN(C(=O)c2ccccc2)C1=O (centres undefined)		inactive	
O=C(Cn1cccc(NCc2ccc(CNc3cccn(CC(=O)NCc4ccc(Cl)c(Cl)c4)c3=O)s2)c1=O)NCc1ccc(Cl)c(Cl)c1	260		inhibition [4]: > 85%
CCOC(=O)Cn1cccc(NCc2ccc(CNc3cccn(CC(=O)OCC)c3=O)s2)c1=O		29%	
O=C(NCc1ccccc1)C1CCCN(C(=O)c2ccccc2Cl)C1=O (centres undefined)		38%	
O=c1c(NCc2ccc(Cl)c(Cl)c2)cccn1Cc1ccccc1	33000	> 85%	
Cc1ccn(CC(=O)NCc2ccc(Cl)c(Cl)c2)c(=O)c1NCc1ccccc1		38%	
O=C(NCc1ccc(Cl)c(Cl)c1)C1CCCN(C(=O)c2ccccc2)C1=O (centres undefined)		39%	
CCOC(=O)Cn1cccc(NC(=O)Nc2ccc(NC(=O)Nc3cccn(CC(=O)OCC)c3=O)cc2)c1=O	3100	> 85%	
Cn1cccc(NCc2ccc(Cl)c(Cl)c2)c1=O		34%	
O=c1c(NCc2ccccc2)cccn1Cc1ccccc1		inactive	
O=C(Cn1cccc(NCc2ccccc2)c1=O)NCc1cn(Cc2ccccc2)nn1		60%	
O=C(Cn1cccc(NC(=O)Nc2ccc(NC(=O)Nc3cccn(CC(=O)NCc4ccc(Cl)c(Cl)c4)c3=O)cc2)c1=O)NCc1ccc(Cl)c(Cl)c1	230		inhibition [4]: > 85%
O=C(Cn1cccc(NC(=O)c2ccccc2)c1=O)NCCNC(=O)Cn1cccc(NC(=O)c2ccccc2)c1=O		inactive	
